# In ChEMBL document CHEMBL1129469, “Nonpeptide angiotensin II receptor antagonists: the next generation in antihypertensive therapy” (J Med Chem, 1996):
# Numbering of substitutions follows the chain as printed.
# Legend:
# [1] = target: T1, Type-2 angiotensin II receptor (Rattus norvegicus, UniProt P35351); assay: Inhibitory activity at Angiotensin II type 2 receptor.
# T1 sequence (P35351 whole entry): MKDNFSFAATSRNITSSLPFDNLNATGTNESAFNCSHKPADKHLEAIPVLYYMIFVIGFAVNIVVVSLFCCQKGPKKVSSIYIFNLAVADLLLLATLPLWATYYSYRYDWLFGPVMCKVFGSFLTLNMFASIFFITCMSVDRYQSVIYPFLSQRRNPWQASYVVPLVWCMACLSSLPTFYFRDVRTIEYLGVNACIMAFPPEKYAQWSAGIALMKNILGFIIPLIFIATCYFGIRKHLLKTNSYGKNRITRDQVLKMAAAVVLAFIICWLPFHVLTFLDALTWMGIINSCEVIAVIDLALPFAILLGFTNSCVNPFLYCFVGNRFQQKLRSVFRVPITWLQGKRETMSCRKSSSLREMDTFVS
# [2] = target: T2, Angiotensin II receptor (AT-1) type-1 (Rattus norvegicus, UniProt P29089+P25095); assay: Inhibitory activity against Angiotensin II receptor, type 1; type: protein assay
# T2 sequence (P29089 whole entry): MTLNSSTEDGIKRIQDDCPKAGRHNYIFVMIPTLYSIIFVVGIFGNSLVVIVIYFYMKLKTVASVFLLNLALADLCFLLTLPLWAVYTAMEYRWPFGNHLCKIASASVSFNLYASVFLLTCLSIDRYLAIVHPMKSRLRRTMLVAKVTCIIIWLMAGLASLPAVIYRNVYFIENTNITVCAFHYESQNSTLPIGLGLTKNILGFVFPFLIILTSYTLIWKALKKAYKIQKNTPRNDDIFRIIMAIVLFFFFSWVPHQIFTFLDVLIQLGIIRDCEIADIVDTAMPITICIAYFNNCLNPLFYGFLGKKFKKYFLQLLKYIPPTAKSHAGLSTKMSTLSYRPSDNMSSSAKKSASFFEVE
# T2 sequence (P25095 whole entry): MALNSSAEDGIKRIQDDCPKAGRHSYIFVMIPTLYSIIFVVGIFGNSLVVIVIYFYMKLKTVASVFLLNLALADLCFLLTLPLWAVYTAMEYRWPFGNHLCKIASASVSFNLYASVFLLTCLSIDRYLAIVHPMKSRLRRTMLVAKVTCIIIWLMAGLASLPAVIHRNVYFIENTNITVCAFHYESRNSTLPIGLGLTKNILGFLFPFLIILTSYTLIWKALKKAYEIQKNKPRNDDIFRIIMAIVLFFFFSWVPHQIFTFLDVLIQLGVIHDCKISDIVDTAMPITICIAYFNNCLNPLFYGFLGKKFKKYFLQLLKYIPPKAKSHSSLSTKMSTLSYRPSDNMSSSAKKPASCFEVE
# [3] = target: T3, Type-2 angiotensin II receptor (Homo sapiens, UniProt P50052); assay: Inhibition of Angiotensin II receptor, type 2
# T3 sequence (P50052 whole entry): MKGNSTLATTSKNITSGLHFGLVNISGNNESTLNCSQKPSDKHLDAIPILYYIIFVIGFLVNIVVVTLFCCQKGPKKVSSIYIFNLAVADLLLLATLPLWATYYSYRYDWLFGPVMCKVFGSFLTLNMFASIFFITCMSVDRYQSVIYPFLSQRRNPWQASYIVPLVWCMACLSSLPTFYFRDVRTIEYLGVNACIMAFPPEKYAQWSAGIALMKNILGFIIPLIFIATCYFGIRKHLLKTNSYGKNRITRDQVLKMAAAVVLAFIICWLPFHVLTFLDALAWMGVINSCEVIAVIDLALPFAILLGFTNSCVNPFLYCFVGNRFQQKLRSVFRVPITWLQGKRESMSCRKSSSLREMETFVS
# [4] = target: T4, Type-1 angiotensin II receptor (Homo sapiens, UniProt P30556); assay: (§1) Inhibition of Angiotensin II receptor, type 1
# T4 sequence (P30556 whole entry): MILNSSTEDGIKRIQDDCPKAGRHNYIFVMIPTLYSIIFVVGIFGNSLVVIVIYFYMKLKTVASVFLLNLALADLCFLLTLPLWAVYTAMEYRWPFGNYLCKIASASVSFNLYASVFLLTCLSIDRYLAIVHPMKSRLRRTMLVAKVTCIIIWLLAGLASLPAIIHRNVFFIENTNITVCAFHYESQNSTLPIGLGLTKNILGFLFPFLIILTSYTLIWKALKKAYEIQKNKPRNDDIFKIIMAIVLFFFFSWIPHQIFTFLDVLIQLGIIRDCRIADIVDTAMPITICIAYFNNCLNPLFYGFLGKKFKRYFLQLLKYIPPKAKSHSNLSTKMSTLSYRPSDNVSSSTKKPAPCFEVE
# Rattus norvegicus [5] = organism: Rattus norvegicus; assay: Oral effective dose required for lowering blood pressure in renal hypertensive rats (RHR); type: functional
# [6] = target: T5, Type-1 angiotensin II receptor (Oryctolagus cuniculus, UniProt P34976); assay: as §1
# T5 sequence (P34976 whole entry): T4 sequence (P30556 whole entry) with I2M, V49A, I254V, I270V, R272H, R311K, T349S, A353V
# [7] = Oral bioavailability in dog; type: ADME, organism-based, Canis lupus familiaris; conditions: in vivo
# [8] = Oral bioavailability in rat; type: ADME, organism-based; conditions: in vivo
# [9] = target: T2, Angiotensin II receptor (AT-1) type-1; assay: Inhibitory activity against Angiotensin II receptor type 1 in rat adrenal membrane; type: cell membranes
# Rattus norvegicus [10] = assay: Intravenous effective dose required for lowering blood pressure in renal hypertensive rats (RHR); type: functional
# [11] = target: T2, Angiotensin II receptor (AT-1) type-1; assay: In vitro antagonistic potency against Angiotensin II receptor, type 1 in rat liver; type: functional, tissue-based
# Oryctolagus cuniculus = organism: Oryctolagus cuniculus; assay: Compound was tested for its antagonistic activity against angiotensin II-induced contractions in rabbit aorta; type: functional
# [12] = target: T2, Angiotensin II receptor (AT-1) type-1; assay: Inhibitory activity against Angiotensin II receptor, type 1 in rat aortic membranes; type: cell membranes
smiles,measurement,setting,value
O=C(O)[C@@H]1Cc2cc(-c3ccccc3)ccc2CN1C(=O)C(c1ccccc1)c1ccccc1,IC50,[1],30 nM
same,IC50,[2],> 100000 nM
CCCCC(=O)Nc1ccc(Br)c(-n2nc(CC)n(Cc3ccc(-c4ccccc4S(=O)(=O)NC(=O)OC(C)(C)C)cc3F)c2=O)c1,IC50,[3],0.12 nM
same,IC50,[4],0.2 nM
Cc1cc(Cn2cnc3c2C[C@@H](C(=O)O)N(C(=O)C(c2ccccc2)c2ccccc2)C3)ccc1N,IC50,[4],> 100000 nM
CCCC(=O)N(CCC(=O)c1c(CC)nc(CCC)n1Cc1ccc(-c2ccccc2S(=O)(=O)NC(=O)OCCC(C)C)cc1F)c1cccnc1,IC50,[1],0.28 nM
same,IC50,[2]; read-out: IC50,0.26 nM
same,ED30,Rattus norvegicus [5],0.27 mg/kg
CCCCc1nc2ccn(CC(=O)N(c3ccccc3)c3ccccc3)c(=O)c2n1Cc1ccc(-c2ccccc2-c2nnn[nH]2)cc1,IC50,[1],300 nM
CCCc1ccc(-c2nnn[nH]2)c(-c2ccc(Cn3c(CC)nc4c(C)cc(C)nc43)cc2)c1,IC50,[1],2 nM
same,IC50,[6],0.3 nM
CCc1nc2c(C)cc(C)nc2n1Cc1ccc2c(ccn2C(=O)c2cccc(-c3nn[nH]n3)c2)c1,IC50,[1],130 nM
same,IC50,[6],5 nM
CCCc1ccc2c(c1)-c1ccc(cc1)Cn1c(CCC)nc3ccc(cc3c1=O)NCCCCCCC(=O)NS2(=O)=O,IC50,[3],24 nM
same,IC50,[4],4 nM
CCc1nc2ccc(NC(=O)N(C)C(C)C)cc2c(=O)n1Cc1ccc(-c2ccccc2S(=O)(=O)NC(=O)OCCC2CC2)cc1F,bioavailability,[7],17%
same,bioavailability,[8],23%
CCCc1nc(CC)c(C=O)n1Cc1ccc(-c2ccccc2-c2nn[nH]n2)cc1,IC50,[9],2.1 nM
same,ED30,Rattus norvegicus [5],0.027 mg/kg
CCCc1nc(CC)c(C(=O)O)n1Cc1ccc(-c2ccccc2-c2nn[nH]n2)cc1,bioavailability,[7],13%
same,bioavailability,[8],8%
same,IC50,[9],6 nM
same,ED30,Rattus norvegicus [10],0.005 mg/kg
same,ED30,Rattus norvegicus [5],0.03 mg/kg
O=C(O)c1c(Oc2ccc(-c3ccccc3-c3nn[nH]n3)cc2)c(C2CC2)nc2ccccc12,F,[8],11%
same,Ki,[11],2.9 nM
same,Kb,Oryctolagus cuniculus,0.061 nM
CCCc1nc2c(C)c(NC(=O)c3ccccc3)cnc2n1Cc1ccc(-c2ccccc2S(=O)(=O)NC(=O)OCCC(C)C)cc1,bioavailability,[7],34%
same,bioavailability,[8],45%
same,IC50,[1],0.29 nM
same,IC50,[2]; read-out: IC50,0.24 nM
CCCc1nc(CC)c(C=O)n1Cc1ccc(-c2ccccc2S(=O)(=O)NC(=O)c2ccccc2)cc1,IC50,[6],1.9 nM
CCCCc1nn(-c2ccccc2C(F)(F)F)c(=O)n1Cc1ccc(-c2ccccc2S(=O)(=O)NC(=O)c2ccccc2)cc1 [L-159913],IC50,[1],450 nM
Cc1ccnc2c1nc(C1CC1)n2Cc1ccc(-c2ccccc2C(=O)O)cc1,IC50,[12],52 nM
Cc1cc(Cn2cnc3c2C[C@@H](C(=O)O)N(C(=O)C(c2ccccc2)c2ccccc2)C3)ccc1N(C)C.O=C(O)C(F)(F)F.O=C(O)C(F)(F)F,IC50,[2],> 100000 nM
CCc1nc2c(C)cc(C)nc2n1Cc1ccc(-c2ccccc2S(=O)(=O)NC(=O)C(c2ccccc2)c2ccccc2)cc1,IC50,[3],18 nM
same,IC50,[4],0.05 nM
CCCCOC(=O)NS(=O)(=O)c1ccc(CCC)cc1-c1ccc(Cn2c(CC)nc3c(C)cc(C)nc32)cc1,IC50,[3],6.1 nM
same,IC50,[4],1.5 nM
Cc1nc(C)c2c(n1)N(Cc1ccc(-c3ccccc3-c3nnn[nH]3)cc1)C(=O)CC2 [TASOSARTAN],ED60,Rattus norvegicus [5],0.58 mg/kg
CCCc1nc(C(F)(F)C(F)(F)F)c(C(=O)O)n1Cc1ccc(-c2ccccc2-c2nn[nH]n2)cc1,IC50,[9],3.1 nM
same,ED30,Rattus norvegicus [10],0.02 mg/kg
same,ED30,Rattus norvegicus [5],0.21 mg/kg
CCCCc1nc2ccc(C(C)(C)OC)cc2c(=O)n1Cc1ccc(-c2ccccc2-c2nn[nH]n2)cc1 [CL-329167],IC50,[2]; read-out: IC50,6 nM
CCCc1nc(CC)c(C(=O)OCc2ccccc2C(=O)c2ccccc2)n1Cc1ccc(-c2ccccc2S(=O)(=O)NC(=O)OCCC(C)C)cc1F,IC50,[3],0.69 nM
same,IC50,[4],570 nM
same,ED30,Rattus norvegicus [10],0.05 mg/kg
same,ED30,Rattus norvegicus [5],0.9 mg/kg
CCCc1nc(C(F)(F)C(F)(F)F)c(C(=O)O)n1Cc1ccc(-c2ccccc2-c2nn[nH]n2)cc1Br,IC50,[2]; read-out: IC50,3 nM
CCCCOC(=O)NS(=O)(=O)c1ccc(Cc2cccc(OC)c2)cc1-c1ccc(Cn2c(CC)nc3c(C)cc(C)nc32)cc1,IC50,[4],1.4 nM
CCCCOC(=O)NS(=O)(=O)c1sc(CC(C)C)cc1-c1ccc(Cn2c(CC)nc3c(C)cc(C)nc32)cc1,IC50,[4],1.1 nM
CCCCc1nc(Cl)c(CO)n1Cc1ccc(-c2ccccc2C(=O)O)cc1,ED30,Rattus norvegicus [5],3.7 mg/kg
CCCc1nc2c(n1Cc1ccc(-c3ccccc3-c3nnn[nH]3)cc1)C(=O)CCCC2 [PRATOSARTAN],IC50,[12],0.8 nM
COc1ccc2c(c1OCc1ccccc1)C[C@@H](C(=O)O)N(C(=O)C(c1ccccc1)c1ccccc1)C2 [OLODANRIGAN],IC50,[2],> 100000 nM
CCCc1nc(CC)c(C(=O)OC)n1Cc1ccc(-c2ccccc2S(=O)(=O)NC(=O)OCCC(C)C)cc1F,IC50,[3],1 nM
same,IC50,[4],1 nM
same,ED50,Rattus norvegicus [10],0.48 mg/kg
same,ED50,Rattus norvegicus [5],0.67 mg/kg
CCCNC(=O)NS(=O)(=O)c1ccccc1-c1ccc(Cn2c(CCC)nc(SC)c2C(=O)O)cc1,IC50,[3],775 nM
same,IC50,[4],0.3 nM
CCc1nc2c(C)cc(CO)nc2n1Cc1ccc2oc(-c3ccccc3NS(=O)(=O)C(F)(F)F)c(Br)c2c1,pKB,Oryctolagus cuniculus,8.6
CCCCc1nc2cccnc2n1Cc1ccc(-c2ccccc2-c2nnn[nH]2)cc1,IC50,[12],0.6 nM
CCCCc1nc(Cl)c(CC(=O)O)n1Cc1ccc(C(=O)O)cc1,ED30,Rattus norvegicus [10],10 mg/kg
COc1ccc(Cn2cnc3c2C[C@@H](C(=O)O)N(C(=O)C(c2ccccc2)c2ccccc2)C3)cc1C,IC50,[1],70 nM
same,IC50,[2],> 100000 nM
CCCCc1nc(Cl)c(C(=O)O)n1Cc1ccc(-c2ccccc2-c2nn[nH]n2)cc1 [CARBOXYLIC ACID METABOLITE],bioavailability,[8],12%
same,ED30,Rattus norvegicus [10],0.04 mg/kg
same,ED30,Rattus norvegicus [5],0.66 mg/kg
